# According to US10076505B2, “Inhalation formulations of Treprostinil” (priority 2003, dated 2018):
# Key:
# [1] = test system: rat; conditions: orally, 1 mg/kg, cited from earlier work
# [2] = in vivo; cited from earlier work
# [3] = test system: sheep; experiment: Intravenous and aerosolized UT-15 dose response during U44069 induced pulmonary hypertension (Example V); format: in vivo; conditions: U44069 infused intravenously at 1 ng per kg per min
# Text: Sheep were used as the animal model of choice for these experiments for a number of reasons. First is the docile nature of sheep. They will stand quietly in metabolic cages without having to utilize tranquilizing drugs, which have the potential to complicate experimental results. Second, sheep are large enough to allow direct measurement of CO, PPA, PLA, PCV, and PSYS. Sheep are also large enough to allow direct aerosolization of substances into the lung via trachoestomy thereby preventing swallowing of drugs and thus eliminating a possible secondary route of administration of UT-15. Third, sheep can tolerate a great amount of instrumentation with little or no discomfort. Fourth, sheep have been utilized for several years as an animal model of pulmonary arterial hypertension and thus, there is a great amount of historical data with which to compare the results. […] The reasons for using U44069 are that it is a very potent pulmonary vasoconstrictor, its characteristics are very similar to endogenously formed thromboxane A2, and it can be titrated to induce the desired degree of pulmonary vasoconstriction. U44069 was mixed with sterile normal saline immediately prior to being used and was protected from light by wrapping the solution with aluminum foil. The concentration of U44069 was adjusted such that a minimal flow rate of 0.8 ml per min was being infused into the sheep. This was done because more concentrated U44069 would have to be infused at very low rates and often causes “pulses” of U44069 due to the infusion characteristics of roller pumps. The U44069 pulses cause vasoconstriction “spikes” and thus would create induce a non-steady-state. Six yearling sheep (3 males, 3 females; 21-37 kg) were fasted 18-24 hours and initially anesthetized with a short acting barbiturate (thiopental) to allow intubation of the sheep. Halothane gas anesthesia (1.5-2.5%) was then used for the surgical procedures. Via a left thoracotomy, a Transonic blood flow probe was placed around the main pulmonary artery, silastic catheters placed in the main pulmonary artery and left atrium. After approximately 7 days the sheep were reanesthetized and the left carotid artery cannulated, a Cordis Introducer Sheath inserted in the left jugular vein, and a tracheotomy made. The sheep were allowed to recover for another 3-5 days prior to experimentation. These sheep were used to allow measurement of pulmonary arterial pressure (PPA), left atrial pressure (PLA), central venous pressure (PCV), systemic arterial pressure (PSYS), heart rate (HR), and cardiac output (CO) after baseline measurements were made for a minimum of 30 minutes. Two separate experiments were conducted to determine the dose response effects of intravenously infused UT-15 and aerosolized UT-15 during U44069 induced pulmonary hypertension. After a 30 minute baseline was established, U44069 was infused intravenously at a rate of 1 ng per kg per min. For the intravenous administration of UT-15 and after allowing the sheep to achieve a steady-state for 30-60 minutes, a dose-response to intravenous UT-15 was similar to that set forth in Example IV. For the aerosolized administration of UT-15 and after allowing the sheep to achieve a steady-state for 30-60 minutes, a dose-response to intravenous UT-15 was similar to that set forth in Example IV. In each experimental protocol, UT-15 was administered to three sheep for 30 minutes and to the other three sheep for 60 minutes.
# [4] = test system: sheep; experiment: Prolonged U44069 intravenous infusion, pulmonary vascular resistance and hemodynamics (Example II); format: in vivo
# Text: Sheep were used as the animal model of choice for these experiments for a number of reasons. First is the docile nature of sheep. They will stand quietly in metabolic cages without having to utilize tranquilizing drugs, which have the potential to complicate experimental results. Second, sheep are large enough to allow direct measurement of CO, PPA, PLA, PCV, and PSYS. Sheep are also large enough to allow direct aerosolization of substances into the lung via trachoestomy thereby preventing swallowing of drugs and thus eliminating a possible secondary route of administration of UT-15. Third, sheep can tolerate a great amount of instrumentation with little or no discomfort. Fourth, sheep have been utilized for several years as an animal model of pulmonary arterial hypertension and thus, there is a great amount of historical data with which to compare the results. The agent chosen to induce pulmonary arterial hypertension was a PGH2 analog, U44069 (9,11-dideoxy,9α,11α-epoxymethanoprostaglandin F2α). The reasons for using U44069 are that it is a very potent pulmonary vasoconstrictor, its characteristics are very similar to endogenously formed thromboxane A2, and it can be titrated to induce the desired degree of pulmonary vasoconstriction. U44069 was mixed with sterile normal saline immediately prior to being used and was protected from light by wrapping the solution with aluminum foil. The concentration of U44069 was adjusted such that a minimal flow rate of 0.8 ml per min was being infused into the sheep. This was done because more concentrated U44069 would have to be infused at very low rates and often causes “pulses” of U44069 due to the infusion characteristics of roller pumps. The U44069 pulses cause vasoconstriction “spikes” and thus would create induce a non-steady-state.
# Six yearling sheep (3 males, 3 females; 21-37 kg) were fasted 18-24 hours and initially anesthetized with a short acting barbiturate (thiopental) to allow intubation of the sheep. Halothane gas anesthesia (1.5-2.5%) was then used for the surgical procedures. Via a left thoracotomy, a Transonic blood flow probe was placed around the main pulmonary artery, silastic catheters placed in the main pulmonary artery and left atrium. After approximately 7 days the sheep were reanesthetized and the left carotid artery cannulated, a Cordis Introducer Sheath inserted in the left jugular vein, and a tracheotomy made. The sheep were allowed to recover for another 3-5 days prior to experimentation. These sheep were used to allow measurement of pulmonary arterial pressure (PPA), left atrial pressure (PLA), central venous pressure (PCV), systemic arterial pressure (PSYS), heart rate (HR), and cardiac output (CO) after baseline measurements were made for a minimum of 30 minutes.
# In four sheep, the ability of U44069 to maintain a steady-state increase in PVR was determined. After a 30 minute baseline, U44069 was infused at a rate of 1 microgram per kg of body weight per minute for 180 minutes. […] In particular, FIG. 9 illustrates that intravenously infused U44069 causes PVR to reach a steady-state increase by 30 minutes and that the steady-state increase lasts for a minimum of 180 minutes. U44069 caused significant alterations in other variables (data not shown) over the 180 minute infusion period relative to their baseline values: PPA increased, HR decreased, CO decreased.
# [5] = U44069 iv 1 microgram per kg per minute for 180 minutes, four sheep
# [6] = U44069 iv 1 microgram per kg per minute, 180 minute infusion
compound,measurement,setting,value
"CCCCC[C@H](O)CC[C@@H]1[C@H]2Cc3cccc(OCC(=O)OC)c3C[C@H]2C[C@H]1O [9-deoxy-2′,9α-methano-3-oxa-4,5,6-trinor-3,7-(1′,3′-interphenylene)-PGF1, methyl ester]",blood pressure still lower after 52 min,[1]; after 52 min,14 mm
same,lowered blood pressure,[1],44 mmHg
CCCCC[C@H](O)CC[C@@H]1[C@H]2Cc3cccc(OCC(=O)[O-])c3C[C@H]2C[C@H]1O.[Na+] [Treprostinil sodium],plasma half life,[2],more than 4 hours
"CCCCC[C@H](O)/C=C/C1C2COC(C2)C1C/C=C\CCCC(=O)O (stereo partly drawn) [U44069, 9,11-dideoxy,9α,11α-epoxymethanoprostaglandin F2α]",PPA relative to baseline,[3],significantly increased
same,PVR,[3],dramatic increase
same,cardiac output relative to baseline,[3],decrease
same,left atrial pressure,[3],did not alter
same,duration of steady-state increase in PVR,[4]; [5],≥ 180 min
same,time for PVR to reach a steady-state increase,[4]; [5],≤ 30 min
same,cardiac output (CO) relative to baseline,[4]; [6],decreased
same,heart rate (HR) relative to baseline,[4]; [6],decreased
same,pulmonary arterial pressure (PPA) relative to baseline,[4]; [6],increased
same,left atrial pressure (PLA) relative to baseline,"[4]; U44069 iv infusion, any time point",did not significantly change
same,central venous pressure (PCV) relative to baseline,"[4]; U44069 iv infusion, significant only at 30 and 60 minutes",increased
same,systemic arterial pressure (PSYS) relative to baseline,"[4]; U44069 iv infusion, statistically different only at 120, 150 and 180 minutes",increased above baseline values
